The assay addresses NAT (N-acetyltransferase). As to the kind of experiment: Kd measurement (Fig. S8, method not shown); fluorescence titration and 1H NMR of acetylation by NAT.

Kd data for one compound are collected here from PMC7480271, “A molecular-logic gate for COX-2 and NAT based on conformational and structural changes: visualizing the progression of liver disease” (Chemical Science, 2020).

`COc1ccc2c(c1)c(CC(=O)NCCCCN1C(=O)c3cccc4cc(N)cc(c34)C1=O)c(C)n2C(=O)c1ccc(Cl)cc1` [3IAN4] displayed a Kd of 2230 nM.

A word on the Kd: it is a measure of binding affinity in units of concentration. Higher therefore signals a looser complex.
